Measurements as given in the supplement of paper PMC11061612.

Columns and labels:
Assay in all cases: combination Emax (second highest fraction inhibited in the dose matrix, 72 h); higher = more inhibition; extreme values may be limits of the assay
[1] = test system: PA-TU-8902 (Pancreatic Carcinoma)
Method in brief: (§1)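 Cell lines in DMEM/F12 or RPMI with 10% FBS were plated in 1536-well plates, held 24 hours at 37°C, 5% CO2, then given two-drug dose matrices for 72 hours (DMSO typically 0.2%). Viability was read by CellTiter-Glo 2.0 luminescence and scaled as inhibition from 0 (vehicle wells) to 1 (blank wells). Combination Emax is the second-highest inhibition in the matrix; Bliss excess is observed combination effect minus expected EA + EB − EA·EB, EA and EB being single-agent effects.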

[2] = test system: DOK (Oral Cavity Carcinoma)
Method in brief: as §1

[3] = test system: YT (Other Blood Carcinomas)
Method in brief: as §1

[4] = test system: JHH-6 (Hepatocellular Carcinoma)
Method in brief: as §1

[5] = test system: HLE (Hepatocellular Carcinoma)
Method in brief: as §1

[6] = test system: SW948 (Colorectal Carcinoma)
Method in brief: as §1

MSTO-211H (Mesothelioma) = test system: MSTO-211H (Mesothelioma)
Method in brief: as §1

CS1 (Chondrosarcoma) = test system: CS1 (Chondrosarcoma)
Method in brief: as §1

[7] = test system: CAL-39 (Other Solid Carcinomas)
Method in brief: as §1

[8] = test system: NCI-H1688 (Small Cell Lung Carcinoma)
Method in brief: as §1

SK-MEL-1 (Melanoma) = test system: SK-MEL-1 (Melanoma)
Method in brief: as §1

[9] = test system: GDM-1 (Acute Myeloid Leukemia)
Method in brief: as §1

[10] = test system: D-283MED (Other Solid Carcinomas)
Method in brief: as §1

[11] = test system: HCC-827 (Lung Adenocarcinoma)
Method in brief: as §1

[12] = test system: HCC1143 (Breast Carcinoma)
Method in brief: as §1

[13] = test system: SNG-M (Endometrial Carcinoma)
Method in brief: as §1

EW-22 (Ewing's Sarcoma) = test system: EW-22 (Ewing's Sarcoma)
Method in brief: as §1

HuO9 (Osteosarcoma) = test system: HuO9 (Osteosarcoma)
Method in brief: as §1

[14] = test system: EFM-192A (Breast Carcinoma)
Method in brief: as §1

D-392MG (Glioblastoma) = test system: D-392MG (Glioblastoma)
Method in brief: as §1

## COc1cccc(OCCCN)c1-c1cc(Nc2cnc(C#N)cn2)n[nH]1 [Prexasertib] + CCc1c2c(nc3ccc(O)cc13)-c1cc3c(c(=O)n1C2)COC(=O)[C@]3(O)CC [SN-38] (first compound max 1 µM, 7x7, partner max 0.3 µM)
[1]
  combination Emax: 0.752
[2]
  combination Emax: 0.627
[3]
  combination Emax: 0.96
[4]
  combination Emax: 0.79
[5]
  combination Emax: 0.95
[6]
  combination Emax: 0.94
MSTO-211H (Mesothelioma)
  combination Emax: 0.808
CS1 (Chondrosarcoma)
  combination Emax: 0.882
[7]
  combination Emax: 0.919
[8]
  combination Emax: 0.941
SK-MEL-1 (Melanoma)
  combination Emax: 0.623
[9]
  combination Emax: 0.99
[10]
  combination Emax: 0.99
[11]
  combination Emax: 0.749
[12]
  combination Emax: 0.928
[13]
  combination Emax: 0.899
EW-22 (Ewing's Sarcoma)
  combination Emax: 0.94
HuO9 (Osteosarcoma)
  combination Emax: 0.995
[14]
  combination Emax: 0.318
D-392MG (Glioblastoma)
  combination Emax: 0.551

## COc1cccc(OCCCN)c1-c1cc(Nc2cnc(C#N)cn2)n[nH]1 [Prexasertib] + CN(C)CCCOc1ccc(-c2ccc3ncc4c(c3c2)n(C2CCOCC2)c(=O)n4C)cn1 [AZD0156] (first compound max 1 µM, 7x7, partner max 1 µM)
[1]
  combination Emax: 0.586
[2]
  combination Emax: 0.348
[3]
  combination Emax: 0.964
[4]
  combination Emax: 0.342
[5]
  combination Emax: 0.803
[6]
  combination Emax: 0.804
MSTO-211H (Mesothelioma)
  combination Emax: 0.888
CS1 (Chondrosarcoma)
  combination Emax: 0.685
[7]
  combination Emax: 0.258
[8]
  combination Emax: 0.568
SK-MEL-1 (Melanoma)
  combination Emax: 0.605
[9]
  combination Emax: 0.913
[10]
  combination Emax: 0.99
[11]
  combination Emax: 0.552
[12]
  combination Emax: 0.912
[13]
  combination Emax: 0.99
EW-22 (Ewing's Sarcoma)
  combination Emax: 0.898
HuO9 (Osteosarcoma)
  combination Emax: 0.785
[14]
  combination Emax: 0.233
D-392MG (Glioblastoma)
  combination Emax: 0.567

## COc1cccc(OCCCN)c1-c1cc(Nc2cnc(C#N)cn2)n[nH]1 [Prexasertib] + C[C@@H]1COCCN1C2=NC(=NC(=C2)C3(CC3)[S@](=N)(=O)C)C4=C5C=CNC5=NC=C4 [AZD6738] (first compound max 1 µM, 7x7, partner max 10 µM)
[1]
  combination Emax: 0.601
[2]
  combination Emax: 0.43
[3]
  combination Emax: 0.918
[4]
  combination Emax: 0.367
[5]
  combination Emax: 0.867
[6]
  combination Emax: 0.821
MSTO-211H (Mesothelioma)
  combination Emax: 0.852
CS1 (Chondrosarcoma)
  combination Emax: 0.714
[7]
  combination Emax: 0.524
[8]
  combination Emax: 0.535
SK-MEL-1 (Melanoma)
  combination Emax: 0.624
[9]
  combination Emax: 0.94
[10]
  combination Emax: 0.988
[11]
  combination Emax: 0.549
[12]
  combination Emax: 0.938
[13]
  combination Emax: 1
EW-22 (Ewing's Sarcoma)
  combination Emax: 0.888
HuO9 (Osteosarcoma)
  combination Emax: 0.855
[14]
  combination Emax: 0.188
D-392MG (Glioblastoma)
  combination Emax: 0.524

## COc1cccc(OCCCN)c1-c1cc(Nc2cnc(C#N)cn2)n[nH]1 [Prexasertib] + Cc1cc2ncnn2cc1Nc1ncc2c(n1)n(C1CCOCC1)c(=O)n2C [AZD7648] (first compound max 1 µM, 7x7, partner max 10 µM)
[1]
  combination Emax: 0.598
[2]
  combination Emax: 0.499
[3]
  combination Emax: 0.928
[4]
  combination Emax: 0.389
[5]
  combination Emax: 0.842
[6]
  combination Emax: 0.812
MSTO-211H (Mesothelioma)
  combination Emax: 0.894
CS1 (Chondrosarcoma)
  combination Emax: 0.727
[7]
  combination Emax: 0.328
[8]
  combination Emax: 0.557
SK-MEL-1 (Melanoma)
  combination Emax: 0.653
[9]
  combination Emax: 0.924
[10]
  combination Emax: 0.995
[11]
  combination Emax: 0.566
[12]
  combination Emax: 0.883
[13]
  combination Emax: 0.954
EW-22 (Ewing's Sarcoma)
  combination Emax: 0.89
HuO9 (Osteosarcoma)
  combination Emax: 0.778
[14]
  combination Emax: 0.284
D-392MG (Glioblastoma)
  combination Emax: 0.519

## COc1cccc(OCCCN)c1-c1cc(Nc2cnc(C#N)cn2)n[nH]1 [Prexasertib] + O=C(c1cc(Cc2n[nH]c(=O)c3ccccc23)ccc1F)N1CCN(C(=O)C2CC2)CC1 [Olaparib] (first compound max 1 µM, 7x7, partner max 10 µM)
[1]
  combination Emax: 0.501
[2]
  combination Emax: 0.418
[3]
  combination Emax: 0.966
[4]
  combination Emax: 0.499
[5]
  combination Emax: 0.842
[6]
  combination Emax: 0.838
MSTO-211H (Mesothelioma)
  combination Emax: 0.806
CS1 (Chondrosarcoma)
  combination Emax: 0.706
[7]
  combination Emax: 0.387
[8]
  combination Emax: 0.528
SK-MEL-1 (Melanoma)
  combination Emax: 0.596
[9]
  combination Emax: 0.91
[10]
  combination Emax: 0.982
[11]
  combination Emax: 0.523
[12]
  combination Emax: 0.735
[13]
  combination Emax: 0.929
EW-22 (Ewing's Sarcoma)
  combination Emax: 0.957
HuO9 (Osteosarcoma)
  combination Emax: 0.878
[14]
  combination Emax: 0.143
D-392MG (Glioblastoma)
  combination Emax: 0.491

## COc1cc2c(cc1OCCCCCOc1cc3c(cc1OC)C(=O)N1C=C(C)C[C@H]1C=N3)N=C[C@@H]1CC(C)=CN1C2=O [SG3199] + O=C(c1cc(Cc2n[nH]c(=O)c3ccccc23)ccc1F)N1CCN(C(=O)C2CC2)CC1 [Olaparib] (first compound max 0.001 µM, 7x7, partner max 10 µM)
[1]
  combination Emax: 0.0749
[2]
  combination Emax: 0.121
[3]
  combination Emax: 0.25
[4]
  combination Emax: 0.113
[5]
  combination Emax: 0.143
[6]
  combination Emax: 0.185
MSTO-211H (Mesothelioma)
  combination Emax: 0.124
CS1 (Chondrosarcoma)
  combination Emax: 0.178
[7]
  combination Emax: 0.0869
[8]
  combination Emax: 0.107
SK-MEL-1 (Melanoma)
  combination Emax: 0.134
[9]
  combination Emax: 0.32
[10]
  combination Emax: 0.417
[11]
  combination Emax: 0.131
[12]
  combination Emax: 0.225
[13]
  combination Emax: 0.159
EW-22 (Ewing's Sarcoma)
  combination Emax: 0.894
HuO9 (Osteosarcoma)
  combination Emax: 0.2
[14]
  combination Emax: 0.129
D-392MG (Glioblastoma)
  combination Emax: 0.111

## CCc1c2c(nc3ccc(O)cc13)-c1cc3c(c(=O)n1C2)COC(=O)[C@]3(O)CC [SN-38] + CN(C)CCCOc1ccc(-c2ccc3ncc4c(c3c2)n(C2CCOCC2)c(=O)n4C)cn1 [AZD0156] (first compound max 0.3 µM, 7x7, partner max 1 µM)
[1]
  combination Emax: 0.413
[2]
  combination Emax: 0.488
[3]
  combination Emax: 0.914
[4]
  combination Emax: 0.326
[5]
  combination Emax: 0.916
[6]
  combination Emax: 0.746
MSTO-211H (Mesothelioma)
  combination Emax: 0.804
CS1 (Chondrosarcoma)
  combination Emax: 0.821
[7]
  combination Emax: 0.896
[8]
  combination Emax: 0.322
SK-MEL-1 (Melanoma)
  combination Emax: 0.538
[9]
  combination Emax: 0.937
[10]
  combination Emax: 0.954
[11]
  combination Emax: 0.526
[12]
  combination Emax: 0.662
[13]
  combination Emax: 0.433
EW-22 (Ewing's Sarcoma)
  combination Emax: 0.951
HuO9 (Osteosarcoma)
  combination Emax: 0.989
[14]
  combination Emax: 0.174
D-392MG (Glioblastoma)
  combination Emax: 0.609
